Laboratory results from US8426420B2, “Heterocyclic pyrazole-carboxamidesas P2Y12 antagonists” (Sanofi, priority 2007, dated 2013).

How the values were obtained:
human P2Y12 receptor = human P2Y12 receptor (Homo sapiens, UniProt Q9H244); experiment: Human P2Y12 recombinant cell membrane binding assay with 33P 2MeS-ADP; details: competition against 33P 2MeS-ADP, membranes of CHO cells with recombinant human P2Y12 receptor
Procedure, shortened: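 CHO membranes expressing human P2Y12 (20 μg/ml stock) preincubated 15 min at RT with compound in HEPES pH 7.4 buffer, then 33P 2MeS-ADP (1.61 nM working solution) added for 20 min at RT. Bound label filtered and counted; four-point, five-fold series from 10 μM final, triplicate, four-parameter fit.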

[1] = test system: human platelet rich plasma; experiment: Inhibition of human platelet aggregation, 96-well assay; type: cell-based
Procedure, shortened: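 ADP-induced aggregation read as 650 nm absorbance every minute for 20 min at 37 °C, with shaking between reads. PRP (~3×E8 platelets/ml, diluted with PPP, ACD-A blood from healthy volunteers) was exposed to compound for 5 min before adding a 40 μM ADP stock (15 μl into 150 μl).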

Chain of human P2Y12 receptor (Q9H244 whole entry): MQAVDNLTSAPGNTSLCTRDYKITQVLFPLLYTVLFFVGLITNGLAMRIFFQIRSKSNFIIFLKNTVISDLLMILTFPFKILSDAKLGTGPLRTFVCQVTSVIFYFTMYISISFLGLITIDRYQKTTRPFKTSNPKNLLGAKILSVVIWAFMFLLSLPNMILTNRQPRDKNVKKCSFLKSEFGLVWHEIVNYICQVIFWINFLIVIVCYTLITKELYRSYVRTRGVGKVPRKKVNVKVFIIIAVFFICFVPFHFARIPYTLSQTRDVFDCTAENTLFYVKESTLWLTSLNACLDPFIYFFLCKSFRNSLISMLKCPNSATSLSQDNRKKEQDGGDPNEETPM

| Compound | IC50 (human P2Y12 receptor) [nM] | IC50 ([1]; Homo sapiens, Platelet, 20 min) [nM] | IC50 ([1]; ADP-induced aggregation, human platelet rich plasma, 96-well plates, AUC of absorbance over 20 minutes) [nM] |
| --- | --- | --- | --- |
| CCOC(=O)N1CCN(C(=O)[C@H](CCC(=O)O)NC(=O)c2cc(OCC(=O)N3CCC[C@H]3C(=O)NCC3CC3)n(-c3cccc(F)c3)n2)CC1 [Example 74, 4-((S)-4-Carboxy-2-{[5-[2-((S)-2-cyclopropylmethylcarbamoyl-pyrrolidin-1-yl)-2-oxo-ethoxy]-1-(3-fluoro-phenyl)-1H-pyrazole-3-carbonyl]-amino}-butyryl)-piperazine-1-carboxylic acid ethyl ester] | 182 | 260 |  |
| CCOC(=O)N1CCN(C(=O)[C@H](CC(=O)O)NC(=O)c2cc(OCC(=O)N3CCC[C@H]3C(=O)NCC3CC3)n(-c3cccc(F)c3)n2)CC1 [Example 77, 4-((S)-3-Carboxy-2-{[5-[2-((S)-2-cyclopropylmethyl-carbamoyl-pyrrolidin-1-yl)-2-oxo-ethoxy]-1-(3-fluoro-phenyl)-1H-pyrazole-3-carbonyl]-amino}-propionyl)-piperazine-1-carboxylic acid ethyl ester] | 28 |  | 160 |
| CCOC(=O)N1CCN(C(=O)[C@H](CCC(=O)O)NC(=O)c2cc(OCC(=O)N3CCC[C@H]3C(=O)NCC3CC3)n(-c3ccc(F)c(F)c3)n2)CC1 [Example 84, 4-((S)-4-Carboxy-2-{[5-[2-((S)-2-cyclopropylmethylcarbamoyl-pyrrolidin-1-yl)-2-oxo-ethoxy]-1-(3,4-difluoro-phenyl)-1H-pyrazole-3-carbonyl]-amino}-butyryl)-piperazine-1-carboxylic acid ethyl ester] | 92 | 550 |  |
| CCOC(=O)N1CCN(C(=O)[C@H](CNC(C)=O)NC(=O)c2cc(OCC(=O)N3CCC[C@H]3C(=O)NC3CCC3)n(-c3ccccc3)n2)CC1 [Example 87, 4-[(S)-3-Acetylamino-2-({5-[2-((S)-2-cyclobutylcarbamoyl-pyrrolidin-1-yl)-2-oxo-ethoxy]-1-phenyl-1H-pyrazole-3-carbonyl}-amino)-propionyl]-piperazine-1-carboxylic acid ethyl ester] | 184 | 1130 |  |
| CCOC(=O)N1CCN(C(=O)[C@H](CCNC(C)=O)NC(=O)c2cc(OCC(=O)N3CCC[C@H]3C(=O)NC3CCC3)n(-c3ccccc3)n2)CC1 [Example 92, 4-[(S)-4-Acetylamino-2-({5-[2-((S)-2-cyclobutylcarbamoyl-pyrrolidin-1-yl)-2-oxo-ethoxy]-1-phenyl-1H-pyrazole-3-carbonyl}-amino)-butyryl]-piperazine-1-carboxylic acid ethyl ester] | 109 | 1130 |  |
| CCOC(=O)N1CCN(C(=O)[C@H](CCNC(=O)C2CC2)NC(=O)c2cc(OCC(=O)N3CCC[C@H]3C(=O)NC3CCC3)n(-c3ccccc3)n2)CC1 [Example 95, 4-[(S)-2-({5-[2-((S)-2-Cyclobutylcarbamoyl-pyrrolidin-1-yl)-2-oxo-ethoxy]-1-phenyl-1H-pyrazole-3-carbonyl}-amino)-4-(cyclopropanecarbonyl-amino)-butyryl]-piperazine-1-carboxylic acid ethyl ester] | 76 | 260 |  |
| COc1cccc(N2CCN(C(=O)[C@H](CCC(=O)O)NC(=O)c3cc(OCC(=O)N4CCC[C@H]4C(=O)NC4CCC4)n(-c4ccccc4)n3)CC2)c1 [Example 101, (S)-4-({5-[2-((S)-2-Cyclobutylcarbamoyl-pyrrolidin-1-yl)-2-oxo-ethoxy]-1-phenyl-1H-pyrazole-3-carbonyl}-amino)-5-[4-(3-methoxy-phenyl)-piperazin-1-yl]-5-oxo-pentanoic acid] | 77 | 790 |  |
| O=C(O)CC[C@H](NC(=O)c1cc(OCC(=O)N2CCC[C@H]2C(=O)NC2CCC2)n(-c2ccccc2)n1)C(=O)N1CCC(C(=O)c2ccccc2)CC1 [Example 106, (S)-5-(4-Benzoyl-piperidin-1-yl)-4-({5-[2-((S)-2-cyclobutylcarbamoyl-pyrrolidin-1-yl)-2-oxo-ethoxy]-1-phenyl-1H-pyrazole-3-carbonyl}-amino)-5-oxo-pentanoic acid] | 104 | 1330 |  |
| CCOC(=O)CC[C@H](NC(=O)c1cc(OCC(=O)N2CCC[C@H]2C(=O)NC2CCC2)n(-c2ccccc2)n1)C(=O)N1CCN(C(=O)OCC)CC1 [Example 127, 4-[(S)-2-({5-[2-((S)-2-Cyclobutylcarbamoyl-pyrrolidin-1-yl)-2-oxo-ethoxy]-1-phenyl-1H-pyrazole-3-carbonyl}-amino)-4-ethoxycarbonyl-butyryl]-piperazine-1-carboxylic acid ethyl ester] | 37 | 440 |  |
| CCOC(=O)N1CCN(C(=O)[C@H](CCC(=O)OC2CCC2)NC(=O)c2cc(OCC(=O)N3CCC[C@H]3C(=O)NC3CCC3)n(-c3ccccc3)n2)CC1 [Example 131, 4-[(S)-2-({5-[2-((S)-2-Cyclobutylcarbamoyl-pyrrolidin-1-yl)-2-oxo-ethoxy]-1-phenyl-1H-pyrazole-3-carbonyl}-amino)-4-cyclobutoxycarbonyl-butyryl]-piperazine-1-carboxylic acid ethyl ester] | 54 | 740 |  |
| CCOC(=O)N1CCN(C(=O)[C@H](CCC(=O)OCC(C)C)NC(=O)c2cc(OCC(=O)N3CCC[C@H]3C(=O)NC3CCC3)n(-c3ccccc3)n2)CC1 [Example 135, 4-[(S)-2-({5-[2-((S)-2-Cyclobutylcarbamoyl-pyrrolidin-1-yl)-2-oxo-ethoxy]-1-phenyl-1H-pyrazole-3-carbonyl}-amino)-4-isobutoxycarbonyl-butyryl]-piperazine-1-carboxylic acid ethyl ester] | 60 | 660 |  |
| CCOC(=O)N1CCN(C(=O)[C@H](CCC(=O)OCC2CCCC2)NC(=O)c2cc(OCC(=O)N3CCC[C@H]3C(=O)NC3CCC3)n(-c3ccccc3)n2)CC1 [Example 138, 4-[(S)-2-({5-[2-((S)-2-Cyclobutylcarbamoyl-pyrrolidin-1-yl)-2-oxo-ethoxy]-1-phenyl-1H-pyrazole-3-carbonyl}-amino)-4-cyclopentylmethoxycarbonyl-butyryl]-piperazine-1-carboxylic acid ethyl ester] | 83 | 1650 |  |

Continued, in another order:

| IC50 (human P2Y12 receptor) [nM] | IC50 ([1]; Homo sapiens, Platelet, 20 min) [nM] | Compound | IC50 ([1]; ADP-induced aggregation, human platelet rich plasma, 96-well plates, AUC of absorbance over 20 minutes) [nM] |
| --- | --- | --- | --- |
| 28 | 170 | CCOC(=O)N1CCN(C(=O)[C@H](CCC(=O)O)NC(=O)c2cc(OCC(=O)N3CCC[C@H]3C(=O)NCC(F)F)n(-c3cccc(F)c3)n2)CC1 [Example 76, 4-((S)-4-Carboxy-2-{[5-[2-((S)-2-(2,2-difluoroethylcarbamoyl)-pyrrolidin-1-yl)-2-oxo-ethoxy]-1-(3-fluoro-phenyl)-1H-pyrazole-3-carbonyl]-amino}-butyryl)-piperazine-1-carboxylic acid ethyl ester] |  |
| 31 | 120 | CCOC(=O)N1CCN(C(=O)[C@H](CCC(=O)O)NC(=O)c2cc(OCC(=O)N3CCC[C@H]3C(=O)NC3CCC3)n(-c3ccc(F)c(F)c3)n2)CC1 [Example 83, 4-((S)-4-Carboxy-2-{[5-[2-((S)-2-cyclobutylcarbamoyl-pyrrolidin-1-yl)-2-oxo-ethoxy]-1-(3,4-difluoro-phenyl)-1H-pyrazole-3-carbonyl]-amino}-butyryl)-piperazine-1-carboxylic acid ethyl ester] |  |
| 108 | 590 | CCOC(=O)N1CCN(C(=O)[C@H](CCNC(=O)OC)NC(=O)c2cc(OCC(=O)N3CCC[C@H]3C(=O)NC3CCC3)n(-c3ccccc3)n2)CC1 [Example 93, 4-[(S)-2-({5-[2-((S)-2-Cyclobutylcarbamoyl-pyrrolidin-1-yl)-2-oxo-ethoxy]-1-phenyl-1H-pyrazole-3-carbonyl}-amino)-4-methoxycarbonylamino-butyryl]-piperazine-1-carboxylic acid ethyl ester] |  |
| 108 | 670 | CCOC(=O)C(=O)NCC[C@H](NC(=O)c1cc(OCC(=O)N2CCC[C@H]2C(=O)NC2CCC2)n(-c2ccccc2)n1)C(=O)N1CCN(C(=O)OCC)CC1 [Example 96, 4-[(S)-2-({5-[2-((S)-2-Cyclobutylcarbamoyl-pyrrolidin-1-yl)-2-oxo-ethoxy]-1-phenyl-1H-pyrazole-3-carbonyl}-amino)-4-(ethoxyoxalyl-amino)-butyryl]-piperazine-1-carboxylic acid ethyl ester] |  |
| 43 | 690 | CCOC(=O)N1CCN(C(=O)[C@H](CCC(=O)OCC2CC2)NC(=O)c2cc(OCC(=O)N3CCC[C@H]3C(=O)NC3CCC3)n(-c3ccccc3)n2)CC1 [Example 128, 4-[(S)-2-({5-[2-((S)-2-Cyclobutylcarbamoyl-pyrrolidin-1-yl)-2-oxo-ethoxy]-1-phenyl-1H-pyrazole-3-carbonyl}-amino)-4-cyclopropylmethoxycarbonyl-butyryl]-piperazine-1-carboxylic acid ethyl ester] |  |
| 39 | 260 | CCOC(=O)N1CCN(C(=O)[C@H](CCC(=O)OC)NC(=O)c2cc(OCC(=O)N3CCC[C@H]3C(=O)NC3CCC3)n(-c3ccccc3)n2)CC1 [Example 136, 4-[(S)-2-({5-[2-((S)-2-Cyclobutylcarbamoyl-pyrrolidin-1-yl)-2-oxo-ethoxy]-1-phenyl-1H-pyrazole-3-carbonyl}-amino)-4-methoxycarbonyl-butyryl]-piperazine-1-carboxylic acid ethyl ester] |  |
| 56 | 360 | CCOC(=O)N1CCN(C(=O)[C@H](CCC(=O)OCOC(=O)C(C)(C)C)NC(=O)c2cc(OCC(=O)N3CCC[C@H]3C(=O)NC3CCC3)n(-c3ccccc3)n2)CC1 [Example 139, 4-[(S)-2-({5-[2-((S)-2-Cyclobutylcarbamoyl-pyrrolidin-1-yl)-2-oxo-ethoxy]-1-phenyl-1H-pyrazole-3-carbonyl}-amino)-4-(2,2-dimethyl-propionyloxymethoxycarbonyl)-butyryl]-piperazine-1-carboxylic acid ethyl ester] |  |
